From patent publication US20060089260A1, “Nitrification inhibitor treatment of grazed pasture soils” (priority 2002, published 2006)
Values joined by “and” are separate entries in the source; they are usually repeats but may differ in a detail not shown here. Identical values can stand only once.

Tests used:
[1] = tested on: pasture, mixture of perennial ryegrass (Lolium perenne) and white clover (Tifolium repens); experiment: Lysimeter study of pasture yield and pasture N off-take; settings: for Increase in pasture yields: lysimeters
Description: (§1) Lysimeter studies, which are state-of-the-art technology for these investigations, have shown the effectiveness of a nitrification inhibitor, dicyandiamide (DCD), in reducing NO3^−—N leaching from a grazed dairy pasture under irrigation. This example used a free-draining Lismore stony silt loam (Udic Haplustept loamy skeletal) and the pasture was a mixture of perennial ryegrass (Lolium perenne) and white clover (Tifolium repens) but the process is applicable to all temperate soils and animal grazing systems.
(§2) Each treatment had 4 replicates. The treatments were allocated to the lysimeters in a randomised design. The urea application rate of 200 kg N ha^−1 y^−1 was at the higher end of fertilizer N application rates for most farmers in the region. The rates of urea were either split into 8 applications to maximize N efficiency, or 4 applications as a cost cutting measure (i.e. reducing application costs). Urine was applied either in the spring (November) or in the autumn (April) to simulate urine patches deposited in the spring or autumn by a grazing dairy cow. The urine application rate of 1000 kg N ha^−1 was equivalent to the typical N loading rate under a cow urine patch. The combination of urea with urine treatments was included to represent a situation where urea was applied throughout the paddock, and patches of the paddock received cow urine. Two rates of phosphate (P) fertilizer were applied, 45 or 90 kg P ha^−1 y^−1, to represent the range of P application rates used by local dairy farmers. As the purpose of this study was to determine the effectiveness of DCD in reducing NO3^− leaching from grazed pasture soil including cow urine patch areas, DCD was either applied or withheld. The DCD was applied in a liquid form to simulate application in the irrigation water on irrigated dairy farms or by spray vehicle.
(§3) DCD was applied in solution form (100 mL per lysimeter) at the rates of 7.5 kg ha^−1 after each urea application in the same day, or 15 kg ha^−1 immediately after each urine application. The DCD solution was sprayed onto the lysimeters with a watering can, simulating an application by an irrigator or spray vehicle.
The herbage was cut periodically to simulate typical grazing practice. All the harvested herbage was removed and dry matter yield recorded. Herbage nitrogen content was analysed. Following each herbage cut, a specially designed mechanical cow hoof was used to simulate cow treading on the lysimeters. The mechanical hoof is made of stainless steel with identical shape and size as an adult Friesian cow hoof. The hoof is mounted onto a compressed air-ram, which is driven by an air compressor system to provide a treading pressure of 220 kPa to simulate the treading pressure exerted by a cow's hoof during walking. The entire surface of the lysimeters was trodden once following each herbage cut. This was based on the inventors observation of hoof print coverage following each grazing rotation.

grazed dairy pasture = experiment: Field plot experiment on Temuka soil, pasture response to DCD; settings: for Pasture yield: with DCD applied
Procedure: A field plot experiment was established on a Temuka soil on the Lincoln University Dairy farm to determine pasture response to DCD applications. A total of six plots, each 100 m^2 in area were set up. Fresh cow urine was collected from dairy cows and was analysed for N concentration. The urine was then applied to eight areas (0.2 m^2 each) within each plot to simulate urine patches deposited by the grazing cow. Urea was applied to the plots as per the rest of the farm at 200 kg N/ha. Phosphate fertilizer (superphosphate) was applied at 45 kg P/ha per year as per the rest of the dairy farm.
Three of the plots received the DCD treatment DCD was applied in a solution form to the whole area of each plot by spray equipment similar to those used to spray other agrochemicals. The DCD was applied twice each year (one in the autumn (May) and one in the spring (August)) at 10-15 kg/ha for each application.
Spray irrigation was applied between spring and autumn when necessary through a central pivot irrigator as per the rest of the dairy farm. Pasture from the simulated urine patch areas and from adjacent non-urine patch areas was cut and removed. Following the pasture cut, the plots were then grazed by dairy cows.
Dry matter yield was recorded from the urine patch and non-urine patch areas (Table 2). Pasture yield was calculated at the paddock scale as described above (Table 2).

[2] = tested on: nitrification in soil (oxidation of NH4+ to NO2−); experiment: Nitrous oxide emissions from urine-treated lysimeters, closed chamber method; settings: for Total nitrous oxide emission: urine + DCD, standard error of the mean in brackets; for Nitrous oxide (N2O) emissions: with DCD
Procedure: Nitrous oxide emissions from two treatments were determined using a closed chamber method. The enclosed chamber was fitted on top of the lysimeters inside a rubber ring on top of the lysimeter casing. At each sampling time, 3 samples, 10-15 minutes apart, were taken. Nitrous oxide was analysed using gas chromatography and daily N2O fluxes were calculated based on daily mean temperatures.

[3] = tested on: nitrification in soil (oxidation of NH4+ to NO2−); experiment: Lysimeter study of NO3−-N leaching from grazed dairy pasture soil (Lismore stony silt loam); settings: for Total annual NO3−-N leaching loss: lysimeter
Description: as §1
(§4) Undisturbed soil monolith lysimeters, 50 cm diameter and 70 cm deep, were collected following well-established protocols and procedures that ensure there is minimal disturbance to the soil structure inside. The lysimeters were transported to a lysimeter facility near Lincoln University, using a specially designed trailer with air-bag suspension to minimize disturbance. The gap between the soil core and the metal casing was sealed using petroleum jelly to stop edge-flow effects. The lysimeters were then installed in the field lysimeter facility with the surface of the lysimeters at the same level as that of the surrounding soil surface, in order to maintain normal plant growing conditions.
as §2
Urea was applied in solid form and was broadcast over the surface of the lysimeters followed by 10 mm of irrigation.
Fresh urine was collected early in the morning during the milking session from Friesian cows, and was analysed and applied to the lysimeters on the same day.
as §3
(§5) From November to April (late spring to mid autumn), flood irrigation, at 100 mm, was applied to all the lysimeters at about three weekly intervals. The amount of water applied was to represent the average amount of water applied on commercial flood-irrigated dairy farms. Irrigation water was applied using an electronically controlled metering system to deliver the required volume of water to the lysimeters. From May to October (late autumn to mid spring), simulated rainfall was applied at the end of each month (if necessary), to supplement the natural rainfall received in order to equal the 75th percentile of local rainfall records for the same period of the year. This was done to create a so-called ‘worst case scenario’ in terms of rainfall inputs and to ensure a standard condition was achieved.

[4] = tested on: nitrification in soil (oxidation of NH4+ to NO2−); experiment: Potassium, calcium and magnesium leaching losses, paddock-averaged; settings: calculated paddock average
Description: as §1, §4, §2, §3, §5

nitrification in soil [5] = settings: cited from earlier work
nitrification in soil [6] = settings: cited from earlier work; remark: listed apart in the source

## N#CN=C(N)N [DCD, dicyandiamide]
[1]; autumn urine treatments
  Increase in pasture N off-take: 23%
[1]; average of autumn and spring
  Increase in pasture N off-take, annual average: 16%
[1]; autumn urine treatments, average
  Increase in pasture yields: 49%
[1]; spring urine treatments
  Increase in pasture yields: 17.5%
  Increase in pasture N off-take: 9%
[1]; treating the whole surface area with DCD
  Annual average increase in pasture production: more than 15%
[1]; with DCD, 11.4 without DCD
  Pasture production: 15.0 t ha−1 y−1
Grazed dairy pasture; field plots, Temuka soil, calculated paddock average, with DCD, 11.1 without DCD
  Paddock averaged pasture yield: 13.0 t ha−1 y−1
Grazed dairy pasture; field plots, Temuka soil, non-urine patch areas, 10.3 without DCD
  Pasture yield: 12.3 t ha−1 y−1
Grazed dairy pasture; field plots, Temuka soil, urine patch areas, 13.4 without DCD
  Pasture yield: 15.1 t ha−1 y−1
Grazed dairy pasture; paddock average, Table 2
  Increase of pasture production from the whole of the grazed pasture: more than 15%
[2]; autumn application, 26.7 (5.9) without DCD
  Total nitrous oxide emission: 7.0 (2.3) kg N2O/ha
[2]; spring application, 18.0 (2.9) without DCD
  Total nitrous oxide emission: 4.5 (0.7) kg N2O/ha
[2]; spring urine application, 18.0 without DCD
  Nitrous oxide (N2O) emissions: 4.5 kg N2O—N ha−1
[2]; urine application in autumn, 26.7 without DCD
  Nitrous oxide (N2O) emissions: 7.0 kg N2O—N
[3]; average of autumn and spring urine
  Reduction of NO3−-N leaching, annual average: 59%
[3]; calculated paddock average, urea 200 + grazing, urine patches 25% of paddock, DCD applied
  Paddock averaged NO3−-N concentration in the drainage water: 7.7 mg N L−1
[3]; calculated paddock average, urea 200 kg N ha−1 y−1 + grazing, urine patches 25% of paddock (3 cows per ha), DCD applied
  Leaching losses from paddock (annual NO3−-N): 46 kg N ha−1 y−1 and 46.1 kg N ha−1 y−1
[3]; autumn urine, P 90 treatment, with DCD (Treatment 6), 488 without DCD
  Total annual NO3−-N leaching loss: 112 kg N ha−1 y−1
[3]; urine 1000 kg N ha−1 applied in autumn, with DCD (Treatment 4), 516 without DCD
  Total annual NO3−-N leaching loss: 128 kg N ha−1 y−1
[3]; urine applied in spring, with DCD (Treatment 8), 397 without DCD
  Total annual NO3−-N leaching loss: 230 kg N ha−1 y−1
[3]; span spring to autumn urine application
  Reductions in the amount of urine N leached: 42.1-76.1%
[3]; urine-N applied in the autumn, average
  Reduction of NO3−-N leaching: 76% and 76.1%
[3]; urine-N applied in the spring
  Reduction of NO3−-N leaching: 42% and 42.1%
[4]
  % decrease due to DCD, calcium (Ca2+) leaching: 50%
  % decrease due to DCD, magnesium (Mg2+) leaching: 52%
  % decrease due to DCD, potassium (K+) leaching: 65%
[4]; 25% of area urine patches, 17 without DCD
  Leaching losses of magnesium (Mg2+), with DCD: 8 kg ha−1y−1
[4]; 25% of area urine patches, 48 without DCD
  Leaching losses of potassium (K+), with DCD: 17 kg ha−1y−1
[4]; 25% of area urine patches, 213 without DCD
  Leaching losses of calcium (Ca2+), with DCD: 107 kg ha−1y−1
Nitrification in soil [5]; DCD added to dairy farm effluent, repeated, high effluent-N loadings during winter
  Reduction in N leached achieved by applying DCD: not sufficient to avert high N losses and environmental damage
Nitrification in soil [5]; DCD combined with farm dairy effluent (dirty water)
  Reduction in the amount of NO3−-N leached: 18%
Nitrification in soil [6]; dairy cattle urine patches, field
  Response in pasture yield or N uptake to DCD application: no significant response
Nitrification in soil [6]; measured in the field
  Effect on nitrification rate in the soil: slowed down the nitrification rate in the soil
